Test results as given in publication PMC4413211, “Esters of the Marine-Derived Triterpene Sipholenol A Reverse P-GP-Mediated Drug Resistance” (Marine Drugs, 2015).

What was measured:
SW620/Ad300 = system: T1, SW620/Ad300; assay: cells; design: MTT cytotoxicity assay, absorbance at 570 nm; settings: Homo sapiens, SW620/AD300, 72 h
T1 construct: doxorubicin-selected, P-gp overexpressing
Description: (§1) The MTT colorimetric assay was used to detect the sensitivity of cells to anticancer drugs. Cells were harvested with trypsin treatment. After washing with PBS, cells were resuspended in the culture media. Cells with a final concentration of 5 × 10^3 cells/well were seeded evenly into 96-well plates with 160 μL media. For the reversal experiments, SSJ compounds, verapamil, FTC or PAK104P (20 μL/well) was added followed by different concentrations of chemotherapeutic drugs (20 μL/well) into designated wells. After 72 h of incubation, 20 μL of MTT solution (5 mg/mL) was added to each well, and the plate was further incubated for 4 h, allowing viable cells to convert the yellow colored MTT into dark-blue formazan crystals. Subsequently, the medium was discarded, and 100 μL of dimethylsulfoxide (DMSO) was added into each well to dissolve the formazan crystals. The absorbance was determined at 570 nm by an OPSYS Microplate Reader from DYNEX Technologies Inc. (Chantilly, VA, USA) followed previously described protocol. The fold of resistance was calculated by dividing the IC50 (concentrations required to inhibit growth by 50%) of the MDR cells by that of the parental sensitive cells. Sipholane analogs (14 compounds) were first tested for cytotoxicity using MTT assay on colon cancer cells SW620 (drug-sensitive) and SW620/Ad300 (drug-resistant). […] Because these compounds were used at a concentration of 5 μM, which is the non-toxic concentration for all of them, they were considered to have no direct cytotoxic effect on cells. HEK293/pcDNA3.1, HEK/ABCB1, HEK/ABCG2 and HEK/ABCC1 cells were generated by transfecting the HEK293 cells with either empty pcDNA3.1 vector, ABCB1 expression vector, ABCG2 expression vector or ABCC1 expression vector respectively. HEK/ABCC1 was generated in the laboratory of Suresh V. Ambudkar (NCI, NIH, Bethesda, MD, USA). The human colon cancer cell line SW620 and doxorubicin-selected P-gp overexpressing SW620/Ad300 cell line were used for the reversal study. SW620, SW620/Ad300 and HEK/ABCG2 cells were also kindly provided by Susan Bates and Robert Robey (NCI, NIH, Bethesda, MD, USA). All the cell lines were grown as adherent monolayers in flasks with DMEM culture medium (GE Healthcare Life Sciences, Logan, UT, USA) supplemented with 10% bovine serum in a humidified incubator containing of 5% CO2 at 37 °C.

SW620 = assay: cells; design: species or system SW620; SW620/Ad300; MTT cytotoxicity assay, absorbance at 570 nm; settings: Homo sapiens, SW-620, 72 h
Description: as §1

[1] = molecular target: T2, P-glycoprotein (P-gp/ABCB1) (Homo sapiens, UniProt P08183)
[2] = molecular target: T2, P-glycoprotein (P-gp/ABCB1); assay: Vanadate-sensitive ATPase stimulation in recombinant human P-gp membranes; supported by [3H]-paclitaxel accumulation/efflux in cells; format: biochemical; design: Recombinant human P-gp membrane

T2 sequence (P08183 whole entry): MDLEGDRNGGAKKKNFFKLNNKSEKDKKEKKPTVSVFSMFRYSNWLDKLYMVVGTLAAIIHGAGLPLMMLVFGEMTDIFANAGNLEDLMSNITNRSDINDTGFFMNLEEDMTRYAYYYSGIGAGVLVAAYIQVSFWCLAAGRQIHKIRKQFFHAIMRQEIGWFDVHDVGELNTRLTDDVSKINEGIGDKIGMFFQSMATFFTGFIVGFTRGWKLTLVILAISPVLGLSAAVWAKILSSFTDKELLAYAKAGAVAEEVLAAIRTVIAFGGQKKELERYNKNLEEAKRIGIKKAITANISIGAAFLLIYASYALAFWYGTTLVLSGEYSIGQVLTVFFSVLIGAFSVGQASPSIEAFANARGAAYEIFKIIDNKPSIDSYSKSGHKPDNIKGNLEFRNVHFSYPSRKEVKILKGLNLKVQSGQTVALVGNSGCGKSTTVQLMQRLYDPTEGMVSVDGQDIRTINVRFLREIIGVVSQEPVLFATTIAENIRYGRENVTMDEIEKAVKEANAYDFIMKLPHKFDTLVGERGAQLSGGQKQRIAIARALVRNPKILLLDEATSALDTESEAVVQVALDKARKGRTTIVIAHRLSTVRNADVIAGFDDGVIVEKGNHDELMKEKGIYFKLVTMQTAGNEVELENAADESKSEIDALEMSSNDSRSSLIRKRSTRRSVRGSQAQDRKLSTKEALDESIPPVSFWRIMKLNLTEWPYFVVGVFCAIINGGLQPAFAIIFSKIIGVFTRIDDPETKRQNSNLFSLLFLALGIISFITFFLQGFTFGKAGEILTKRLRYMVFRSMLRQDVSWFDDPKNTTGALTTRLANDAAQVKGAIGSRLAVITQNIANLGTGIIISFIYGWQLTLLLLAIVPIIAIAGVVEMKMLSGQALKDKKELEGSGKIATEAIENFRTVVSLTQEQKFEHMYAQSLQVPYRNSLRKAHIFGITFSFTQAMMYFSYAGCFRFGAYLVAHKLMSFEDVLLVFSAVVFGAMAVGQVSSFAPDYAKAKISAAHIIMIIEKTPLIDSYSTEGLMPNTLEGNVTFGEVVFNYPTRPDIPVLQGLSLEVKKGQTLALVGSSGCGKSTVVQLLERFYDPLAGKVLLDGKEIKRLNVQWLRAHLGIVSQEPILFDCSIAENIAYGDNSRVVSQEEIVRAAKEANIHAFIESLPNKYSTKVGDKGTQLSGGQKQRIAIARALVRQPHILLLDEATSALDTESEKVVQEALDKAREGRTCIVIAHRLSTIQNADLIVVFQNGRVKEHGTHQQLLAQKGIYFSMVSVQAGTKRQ

Row | EC50 [2] | SMILES | IC50 (SW620/Ad300) | IC50 (SW620) | [3H]-paclitaxel accumulation and efflux, resistant versus parental cells [1]
1 | – | CC(=O)OC1CCC2(C)C(CCC(C)(O)C2CCC2C(C)=CCC3C(C)=CCC3C2(C)C)OC1(C)C (stereo not drawn) [SSJ35 (12)] | > 30 µM | > 30 µM | –
2 | – | CC(=O)OC1CCC2(C)C(CCC(C)(O)C2CCC2C(C)=CCC3C(CCC3(C)OC(C)=O)C2(C)C)OC1(C)C (stereo not drawn) [SSJ27 (4)] | > 30 µM | > 30 µM | –
3 | – | CC1=CCC2C(CCC2(C)O)C(C)(C)C1CCC1C(C)(O)CCC2OC(C)(C)C(OC(=O)c3ccccc3)CCC21C (stereo not drawn) [SSJ31 (8)] | > 30 µM | > 30 µM | –
4 | – | CC1=CCC2C(CCC2(C)O)C(C)(C)C1CCC1C(C)(O)CCC2OC(C)(C)C(OCc3ccccc3)CCC21C (stereo not drawn) [SSJ36 (13)] | > 30 µM | > 30 µM | –
5 | – | CC1=CCC2C1CC=C(C)C(CCC1C(C)(O)CCC3OC(C)(C)C(OC(=O)c4ccccc4)CCC31C)C2(C)C (stereo not drawn) [SSJ29 (6)] | > 30 µM | > 30 µM | –
6 | – | CC1=CCC2C1CC=C(C)C(CCC1C(C)(O)CCC3OC(C)(C)C(OCc4ccccc4)CCC31C)C2(C)C (stereo not drawn) [SSJ37 (14)] | > 30 µM | > 30 µM | –
7 | – | CC1=CCC2C(CCC2(C)O)C(C)(C)C1CCC1C(C)(O)CCC2OC(C)(C)C(OC(=O)CCC(=O)O)CCC21C (stereo not drawn) [SSJ25 (2)] | > 30 µM | > 30 µM | –
8 | – | CC1=CCC2C1CC=C(C)C(CCC1C(C)(O)CCC3OC(C)(C)C(OC(=O)CCC(=O)O)CCC31C)C2(C)C (stereo not drawn) [SSJ34 (11)] | > 30 µM | > 30 µM | –
9 | – | CC(=O)O[C@H]1C(=O)[C@@]2(C)[C@H]([C@H](OC(=O)c3ccccc3)[C@]3(O)C[C@H](OC(=O)[C@H](O)[C@@H](NC(=O)c4ccccc4)c4ccccc4)C(C)=C1C3(C)C)[C@]1(OC(C)=O)CO[C@@H]1C[C@@H]2O [paclitaxel] | – | – | while the paclitaxel level significantly decreased in SW620/Ad300 drug-resistant cells, the levels of paclitaxel remained stable in parental SW620
10 | – | CC1=CCC2C1CC=C(C)C(CCC1C(C)(O)CCC3OC(C)(C)C(O)CCC31C)C2(C)C (stereo not drawn) [SSJ28 (5)] | > 30 µM | > 30 µM | –
11 | 0.6 µM | CC1=CC[C@H]2[C@H](CC[C@]2(C)O)C(C)(C)[C@H]1CC[C@H]1[C@]2(C)CC[C@H](OC(=O)c3ccncc3)C(C)(C)O[C@H]2CC[C@@]1(C)O [SSJ32, sipholenol A-4-O-isonicotinate] | > 30 µM | > 30 µM | –
12 | 0.26 µM | CC(=O)O[C@H]1CC[C@]2(C)[C@H](CC[C@@](C)(O)[C@H]2CC[C@H]2C(C)=CC[C@H]3[C@H](CC[C@]3(C)O)C2(C)C)OC1(C)C [SSJ26, sipholenol A-4-O-acetate] | > 30 µM | > 30 µM | –
13 | – | CC1=CCC2C1CC=C(C)C(CCC1C(C)(O)CCC3OC(C)(C)C(OC(=O)c4ccncc4)CCC31C)C2(C)C (stereo not drawn) [SSJ33 (10)] | > 30 µM | > 30 µM | –
